Tests used:
[1] = test system: agrégation plaquettaire provoquée in vitro par l'ADP; assay: ADP-induced platelet aggregation in vitro in platelet-rich rat plasma; assay type: cell-based; conditions: plasma de rat enrichi en plaquettes
[2] = test system: torsions à la phénylbenzoquinone chez la souris; assay: Phenylbenzoquinone writhing test (analgesic activity); assay type: in vivo; conditions: dose de 12,5 mg/kg, 24 heures après son administration
Procedure: L'activité analgésique des composés de formule 1 a été mise en évidence dans le test des torsions à la phénylbenzoquinone chez la souris. Ainsi, l'acide de formule 1 (racémique) possède dans ce test une DE50 de 3 à 6 mg/kg P.O. Cette activité analgésique est prolongée dans le temps, une dose de 12,5 mg/kg de ce composé entraînant encore une analgésie de 42%, 24 heures après son administration.

Solubility in water = assay type: physicochemical
Procedure: Le sel de pyrrolidine de l'acide (phényl-2 benzothiazolyl-6)-2 propionique est préparé par action d'I g d'amine sur 4 g d'acide en solution dans le méthanol. Il fond à 142°C.

[3] = test system: biosynthèse des prostaglandines; assay: Protection against arachidonic acid toxicity (lethal dose) in mice; assay type: in vivo, souris

## CC(C(=O)O)c1ccc2nc(-c3ccccc3)sc2c1 (racemic)
[1]
  concentration active par rapport à l'acide acétyl salicylique: actif à une concentration dix fois plus faible que l'acide acétyl salicylique

## CC(C(=O)O)c1ccc2nc(-c3ccccc3)sc2c1 (racemic) [Exemple 1, acide (phényl-2 benzothiazolyl-6)-2 propionique]
[2]
  analgésie: 42%

## CC(C(=O)O)c1ccc2nc(-c3ccccc3)sc2c1 (racemic) [Exemple 3, (phényl-2 benzothiazolyl-6)-2 propionate de sodium]
Solubility in water
  solubilité dans l'eau: soluble dans l'eau
[3]; voie intraveineuse, same doses (0,5 mg/kg)
  activité contre la toxicité de l'acide arachidonique: actifs aux mêmes doses

## CC(C(=O)O)c1ccc2nc(-c3ccccc3)sc2c1 (racemic) [Exemple 4, sel de pyrrolidine de l'acide (phényl-2 benzothiazolyl-6)-2 propionique]
Solubility in water
  solubilité dans l'eau: soluble dans l'eau

## CC(C(=O)O)c1ccc2nc(-c3ccccc3)sc2c1 (single isomer, unassigned) [Exemple 8a, acide (phényl-2 benzothiazolyl-6)-2 propionique]
[3]; route not stated for the comparison
  activité contre la toxicité de l'acide arachidonique, comparison of enantiomers and racemate: activité comparable à celle du racémique (exemple 1), et supérieure à celle de son homologue lévogyre

From EP0017543B1, “Benzothiazole derivatives, process for their preparation and their therapeutical uses” (Albert ROLLAND S.A. Société dite, priority 1979, dated 1980)
